Drawing on ChEMBL document CHEMBL4400534, “Pharmacophore-based design of novel 3-hydroxypyrimidine-2,4-dione subtypes as inhibitors of HIV reverse transcriptase-associated RNase H: Tolerance of a nonflexible linker” (Eur J Med Chem, 2019), this text covers IC50, EC50 and CC50 for 21 compounds.

Some results are limits rather than exact numbers.

The target of series [1] is T1, Human immunodeficiency virus type 1 reverse transcriptase (Human immunodeficiency virus 1, UniProt Q72547). The experiment in a line: Inhibition of HIV1 reverse transcriptase RNase H expressed in Escherichia coli JM109 using RNA/DNA duplex substrate HTS-1.
Series [2] concerns the target T1, Human immunodeficiency virus type 1 reverse transcriptase. Description: Inhibition of HIV1 reverse transcriptase polymerase using deoxynucleotide triphosphates and 18 nucleotide DNA primer annealed to 100 nucleotide DNA template after 30 mins.
The target of series [3] is Human immunodeficiency virus type 1 integrase (Human immunodeficiency virus 1, UniProt Q7ZJM1). Description: Inhibition of HIV1 integrase strand transfer activity using 5'-biotinylated oligonucleotide as substrate preincubated for 10 mins followed by substrate addition and measured after 30 mins.
Chain of Human immunodeficiency virus type 1 integrase (Q7ZJM1 whole entry): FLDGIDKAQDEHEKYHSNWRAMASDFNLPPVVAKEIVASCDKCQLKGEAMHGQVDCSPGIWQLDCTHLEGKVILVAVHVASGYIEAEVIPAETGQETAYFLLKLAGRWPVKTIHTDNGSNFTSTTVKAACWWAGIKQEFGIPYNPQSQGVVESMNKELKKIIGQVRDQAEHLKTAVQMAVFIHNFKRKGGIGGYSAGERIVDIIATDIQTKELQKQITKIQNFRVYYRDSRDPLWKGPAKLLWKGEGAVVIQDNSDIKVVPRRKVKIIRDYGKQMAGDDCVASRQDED
Series [4] concerns Human immunodeficiency virus 1. The experiment in a line: Antiviral activity against HIV-1 infected in human P4R5 cells assessed as reduction in viral replication preincubated for 24 hrs followed by viral infection and measured after 48 hrs by MAGI assay. Format: functional, organism-based.
The nature of series [5]: Cytotoxicity against human P4R5 cells after 72 hrs by XTT assay. In kind it is cell-based. For orientation: Tetrazolium assays rely on reduction of a dye to a coloured formazan, in cell work by metabolically active cells.

For orientation: IC50 means the concentration that inhibits the measured activity by half. The low end stands for greater potency, the high end for weaker potency. What is called EC50 is the concentration that produces a half-maximal response. The term CC50 denotes the concentration that lowers cell viability or growth by half. On to `O=C(c1ccc(-c2ccc(F)cc2)cc1)c1cc(=O)n(O)c(=O)[nH]1`, for which the IC50 in series [1] is 0.027 µM; in series [2] it was more than 10 µM; in series [3] it was 6.7 µM. Also, the EC50 in series [4] was 9 µM. In series [5], this compound yielded a CC50 of more than 100 µM.

In the case of `Cc1cc(C)cc(-c2ccc(C(=O)c3cc(=O)n(O)c(=O)[nH]3)cc2)c1`, the IC50 in series [1] is 0.063 µM; in series [2] it was more than 10 µM; in series [3], 3.5 µM. Moreover, the EC50 in series [4] was more than 20 µM. In addition, the CC50 in series [5] is more than 100 µM.

For the compound `COC(=O)c1ccc(-c2ccc(C(=O)c3cc(=O)n(O)c(=O)[nH]3)cc2)cc1`, the IC50 in series [1] was 0.015 µM; in series [2], more than 10 µM; in series [3] it was 6.7 µM. The EC50 in series [4] was more than 20 µM. For the same compound, the CC50 in series [5] is more than 100 µM.

For `O=C(c1cccc(-c2ccccc2)c1)c1cc(=O)n(O)c(=O)[nH]1`, the figures for the IC50 in series [1], in series [2] and in series [3] were 0.017 µM, more than 10 µM and 7.1 µM, respectively. In addition, the EC50 in series [4] was more than 20 µM. The compound also displayed a CC50 in series [5] of more than 100 µM.

As for `O=C(c1ccc(-c2ccccc2)cc1)c1cc(=O)n(O)c(=O)[nH]1`, the IC50 in series [1] is 0.022 µM; in series [2], more than 10 µM; in series [3] it was 2.5 µM. For the same compound, the EC50 in series [4] came to 15 µM. For the same compound, the cytotoxic concentration (CC50) in series [5] was more than 100 µM.

Consider `Cc1ccc(-c2ccc(C(=O)c3cc(=O)n(O)c(=O)[nH]3)cc2)cc1`, for which the IC50 was 0.021 µM in series [1], more than 10 µM in series [2] and 10 µM in series [3]. For the same compound, in series [4], the EC50 turned out to be 4.7 µM. Moreover, the midpoint of cytotoxicity in series [5], the CC50, lay at 22 µM.

With `COC(=O)c1ccc(C(=O)c2cc(=O)n(O)c(=O)[nH]2)cc1`, the IC50 was 0.031 µM in series [1], more than 10 µM in series [2] and 13 µM in series [3]. Also, the EC50 in series [4] was more than 20 µM. The compound also gave a CC50 in series [5] of more than 100 µM.

In the case of `CCOCn1c(C(C#N)c2ccc(-c3ccccc3)cc2)cc(=O)n(O)c1=O` (stereo not given), the IC50 is 0.76 µM in series [1], more than 10 µM in series [2] and more than 100 µM in series [3]. For the same compound, in series [4], the EC50 is more than 20 µM. For the same compound, the CC50 in series [5] was more than 100 µM.

On to `Cc1cc(C)cc(C(=O)c2cc(=O)n(O)c(=O)[nH]2)c1`, for which the IC50 in series [1] is 0.09 µM; in series [2], more than 10 µM; in series [3], 4.9 µM. In addition, the EC50 in series [4] was found to be 9.5 µM. Further, the CC50 in series [5] was 21 µM.

For the compound `O=C(c1ccc(F)cc1)c1cc(=O)n(O)c(=O)[nH]1`, the figures for the IC50 in series [1], in series [2] and in series [3] were 0.085 µM, more than 10 µM and 4 µM, respectively. For the same compound, the EC50 in series [4] was more than 20 µM. Also, in series [5], the CC50 is more than 100 µM.

Consider `CCOCn1c(C(C#N)c2cc(C)cc(C)c2)cc(=O)n(O)c1=O` (stereo not given), for which the IC50 in series [1] is 3.7 µM; in series [2] it was more than 10 µM; in series [3] it was more than 100 µM. The EC50 in series [4] was more than 20 µM. Further, in series [5], the CC50 is more than 100 µM.

Take `Cc1cc(-c2ccc(C(=O)c3cc(=O)n(O)c(=O)[nH]3)cc2)ccc1F`: the IC50 in series [1] was found to be 0.019 µM; in series [2] it was 8.3 µM; in series [3] it was 4.3 µM. Also, the EC50 in series [4] was more than 20 µM. Also, in series [5], the CC50 is more than 100 µM.

`N#Cc1ccc(-c2ccc(C(=O)c3cc(=O)n(O)c(=O)[nH]3)cc2)cc1`: the IC50 came out at 0.024 µM in series [1], 7.7 µM in series [2] and 0.53 µM in series [3]. Besides, the 50% effective concentration (EC50) in series [4] is more than 20 µM. Besides, in series [5], the CC50 is more than 100 µM.

For the compound `O=C(c1ccc(C(F)(F)F)cc1)c1cc(=O)n(O)c(=O)[nH]1`, the IC50 is 0.081 µM in series [1], more than 10 µM in series [2] and 2.1 µM in series [3]. In addition, the EC50 in series [4] was more than 20 µM. Moreover, the CC50 in series [5] was more than 100 µM.

On to `CCOCn1c(C(=O)c2cccc(-c3ccccc3)c2)cc(=O)n(O)c1=O`, for which the figures for the IC50 in series [1], in series [2] and in series [3] were 1.1 µM, more than 10 µM and more than 100 µM, respectively. Also, the EC50 in series [4] came to 12 µM. The same compound showed a CC50 in series [5] of 73 µM.

Regarding `O=C(c1ccc(-c2ccc(Cl)c(F)c2)cc1)c1cc(=O)n(O)c(=O)[nH]1`, the IC50 was 0.023 µM in series [1], more than 10 µM in series [2] and 0.37 µM in series [3]. In series [4], the EC50 worked out at 18 µM. Besides, in series [5], the CC50 is more than 100 µM.

`O=C(c1ccc(-c2ccc(C(F)(F)F)cc2)cc1)c1cc(=O)n(O)c(=O)[nH]1`: the figures for the IC50 in series [1], in series [2] and in series [3] were 0.026 µM, more than 10 µM and more than 100 µM, respectively. In addition, in series [4], the EC50 amounted to 5.3 µM. In addition, in series [5], it took 17 µM to reach half-maximal cytotoxicity (CC50).

For the compound `COc1ccc(-c2ccc(C(=O)c3cc(=O)n(O)c(=O)[nH]3)cc2)cc1`, the IC50 in series [1] is 0.53 µM; in series [2], 5.9 µM; in series [3], more than 100 µM. Further, the EC50 in series [4] was more than 20 µM. For the same compound, the CC50 in series [5] is more than 100 µM.

Take `COc1ccc(-c2ccc(C(=O)c3cc(=O)n(O)c(=O)[nH]3)cc2)cc1OC`: the figures for the IC50 in series [1], in series [2] and in series [3] were 0.074 µM, 9.6 µM and 0.33 µM, respectively. Besides, the EC50 in series [4] worked out at 6.7 µM. This compound also gave a CC50 in series [5] of 8.4 µM.

As for `CCOCn1c(C(=O)c2ccc(-c3ccccc3)cc2)cc(=O)n(O)c1=O`, the values for the IC50 in series [1], in series [2] and in series [3] were 0.42 µM, more than 10 µM and more than 100 µM, respectively. Besides, the EC50 in series [4] is more than 20 µM. Further, in series [5], the CC50 is more than 100 µM.

As for `Cc1ccc(C(=O)c2cc(=O)n(O)c(=O)[nH]2)cc1`, the results for the IC50 in series [1], in series [2] and in series [3] were 0.093 µM, more than 10 µM and 7.2 µM, respectively. In addition, the EC50 in series [4] is more than 20 µM. This compound also had a CC50 in series [5] of 48 µM.
